Drawing on paper PMC10507085, “Pharmacological inhibition of TBK1/IKKε blunts immunopathology in a murine model of SARS-CoV-2 infection” (Nature Communications, 2023), this text covers remaining binding for one molecule.

Targets include STK39 (Homo sapiens, UniProt Q9UEW8); MKNK2 (Homo sapiens, UniProt Q9HBH9); PRKD3 (Homo sapiens, UniProt O94806); MARK2 (Homo sapiens, UniProt Q7KZI7); PIKFYVE (Homo sapiens, UniProt Q9Y2I7); MAPK8 (Homo sapiens, UniProt P45983); TEK (Homo sapiens, UniProt Q02763); MAP2K4 (Homo sapiens, UniProt P45985); MAPK13 (Homo sapiens, UniProt O15264); EPHA8 (Homo sapiens, UniProt P29322); CDK13 (Homo sapiens, UniProt Q14004); ZAP70 (Homo sapiens, UniProt P43403); CDK19 (Homo sapiens, UniProt Q9BWU1); PKN1 (Homo sapiens, UniProt Q16512); EPHA1 (Homo sapiens, UniProt P21709); FLT3 (Homo sapiens, UniProt P36888); PNCK (Homo sapiens, UniProt Q6P2M8); MAP3K9 (Homo sapiens, UniProt P80192); RAF1 (Homo sapiens, UniProt P04049); MYLK (Homo sapiens, UniProt Q15746).

Holding throughout (test): biochemical
Common to all, as to parameters: KINOMEscan competition binding, DNA-tagged kinase against immobilised ligand, qPCR read-out
Common to all, as to conditions: read-out: Percent Control
For orientation: Quantitative PCR measures a nucleic acid by following its amplification.

Sequence of MAPK13 (O15264 whole entry): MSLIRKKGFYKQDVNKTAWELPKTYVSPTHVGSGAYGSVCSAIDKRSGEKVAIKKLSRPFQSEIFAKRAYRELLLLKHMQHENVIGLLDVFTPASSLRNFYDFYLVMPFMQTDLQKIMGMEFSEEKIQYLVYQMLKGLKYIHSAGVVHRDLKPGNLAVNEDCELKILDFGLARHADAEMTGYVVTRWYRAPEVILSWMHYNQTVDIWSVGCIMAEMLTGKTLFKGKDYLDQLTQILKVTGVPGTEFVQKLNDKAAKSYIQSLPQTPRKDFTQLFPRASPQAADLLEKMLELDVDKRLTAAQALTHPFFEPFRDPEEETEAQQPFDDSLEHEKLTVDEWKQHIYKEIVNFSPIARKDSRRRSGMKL
Sequence of RAF1 (P04049 whole entry): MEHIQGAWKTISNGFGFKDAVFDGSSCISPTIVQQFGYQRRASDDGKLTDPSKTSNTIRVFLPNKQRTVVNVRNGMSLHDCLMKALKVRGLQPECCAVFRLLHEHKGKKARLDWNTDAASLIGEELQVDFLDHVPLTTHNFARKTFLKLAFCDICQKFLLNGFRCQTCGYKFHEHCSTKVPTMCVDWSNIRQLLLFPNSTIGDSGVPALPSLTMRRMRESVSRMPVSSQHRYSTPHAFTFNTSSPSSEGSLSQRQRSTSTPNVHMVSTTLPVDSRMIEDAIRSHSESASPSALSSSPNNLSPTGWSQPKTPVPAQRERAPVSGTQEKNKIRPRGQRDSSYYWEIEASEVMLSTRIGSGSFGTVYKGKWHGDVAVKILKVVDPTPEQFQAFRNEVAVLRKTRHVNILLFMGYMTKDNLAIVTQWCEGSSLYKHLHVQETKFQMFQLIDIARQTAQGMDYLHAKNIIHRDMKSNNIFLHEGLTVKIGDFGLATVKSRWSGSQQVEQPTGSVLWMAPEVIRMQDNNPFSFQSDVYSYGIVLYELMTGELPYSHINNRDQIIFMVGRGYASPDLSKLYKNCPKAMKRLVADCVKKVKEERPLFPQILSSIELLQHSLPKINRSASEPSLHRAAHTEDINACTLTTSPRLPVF
Sequence of FLT3 (P36888 whole entry): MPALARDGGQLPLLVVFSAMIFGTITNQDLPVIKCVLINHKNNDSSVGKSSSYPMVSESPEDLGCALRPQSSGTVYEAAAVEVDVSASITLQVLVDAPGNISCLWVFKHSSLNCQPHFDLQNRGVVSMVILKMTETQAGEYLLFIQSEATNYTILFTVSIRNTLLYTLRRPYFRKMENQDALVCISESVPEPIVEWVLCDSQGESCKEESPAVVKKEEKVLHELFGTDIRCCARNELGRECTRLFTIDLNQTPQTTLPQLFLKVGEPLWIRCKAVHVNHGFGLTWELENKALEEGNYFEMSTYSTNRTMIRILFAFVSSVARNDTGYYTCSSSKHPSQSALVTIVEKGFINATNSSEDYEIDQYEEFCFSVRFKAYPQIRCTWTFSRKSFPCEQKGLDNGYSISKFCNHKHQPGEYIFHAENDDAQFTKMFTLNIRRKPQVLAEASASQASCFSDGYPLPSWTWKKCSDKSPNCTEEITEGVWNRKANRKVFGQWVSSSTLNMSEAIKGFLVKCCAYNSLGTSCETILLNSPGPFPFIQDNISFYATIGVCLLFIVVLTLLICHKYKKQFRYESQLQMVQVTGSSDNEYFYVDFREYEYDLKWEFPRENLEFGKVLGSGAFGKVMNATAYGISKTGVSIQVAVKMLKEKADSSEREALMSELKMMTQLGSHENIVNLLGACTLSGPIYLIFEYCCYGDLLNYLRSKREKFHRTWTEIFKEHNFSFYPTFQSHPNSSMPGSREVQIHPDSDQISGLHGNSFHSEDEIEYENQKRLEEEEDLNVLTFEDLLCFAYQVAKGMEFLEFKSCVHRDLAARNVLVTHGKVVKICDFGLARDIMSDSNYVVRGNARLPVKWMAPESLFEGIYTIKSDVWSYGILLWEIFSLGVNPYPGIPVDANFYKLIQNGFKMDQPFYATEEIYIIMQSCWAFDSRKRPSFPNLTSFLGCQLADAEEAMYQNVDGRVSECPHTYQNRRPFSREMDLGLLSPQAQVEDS
Sequence of MAPK8 (P45983 whole entry): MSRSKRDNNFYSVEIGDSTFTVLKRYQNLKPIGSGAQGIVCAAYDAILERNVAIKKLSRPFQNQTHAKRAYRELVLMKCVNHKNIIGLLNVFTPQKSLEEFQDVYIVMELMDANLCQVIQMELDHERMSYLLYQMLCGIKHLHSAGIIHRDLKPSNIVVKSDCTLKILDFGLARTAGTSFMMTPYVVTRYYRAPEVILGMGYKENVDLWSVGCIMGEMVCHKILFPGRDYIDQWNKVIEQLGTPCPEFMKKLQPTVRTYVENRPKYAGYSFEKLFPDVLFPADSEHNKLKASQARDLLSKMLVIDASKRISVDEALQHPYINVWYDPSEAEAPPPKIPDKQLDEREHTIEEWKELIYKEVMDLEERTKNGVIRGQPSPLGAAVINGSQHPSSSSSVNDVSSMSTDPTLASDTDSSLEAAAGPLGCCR
Sequence of MAP2K4 (P45985 whole entry): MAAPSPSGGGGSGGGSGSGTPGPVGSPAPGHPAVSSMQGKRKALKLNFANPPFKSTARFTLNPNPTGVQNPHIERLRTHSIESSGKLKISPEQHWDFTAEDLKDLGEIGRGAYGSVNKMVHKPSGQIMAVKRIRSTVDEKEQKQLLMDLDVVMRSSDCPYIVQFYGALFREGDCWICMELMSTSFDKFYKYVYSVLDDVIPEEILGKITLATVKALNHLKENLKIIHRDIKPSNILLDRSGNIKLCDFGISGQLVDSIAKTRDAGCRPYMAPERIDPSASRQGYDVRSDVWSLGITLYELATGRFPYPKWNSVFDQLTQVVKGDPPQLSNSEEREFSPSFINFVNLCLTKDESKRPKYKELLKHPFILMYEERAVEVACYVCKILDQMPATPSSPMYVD
Sequence of MYLK (Q15746 whole entry): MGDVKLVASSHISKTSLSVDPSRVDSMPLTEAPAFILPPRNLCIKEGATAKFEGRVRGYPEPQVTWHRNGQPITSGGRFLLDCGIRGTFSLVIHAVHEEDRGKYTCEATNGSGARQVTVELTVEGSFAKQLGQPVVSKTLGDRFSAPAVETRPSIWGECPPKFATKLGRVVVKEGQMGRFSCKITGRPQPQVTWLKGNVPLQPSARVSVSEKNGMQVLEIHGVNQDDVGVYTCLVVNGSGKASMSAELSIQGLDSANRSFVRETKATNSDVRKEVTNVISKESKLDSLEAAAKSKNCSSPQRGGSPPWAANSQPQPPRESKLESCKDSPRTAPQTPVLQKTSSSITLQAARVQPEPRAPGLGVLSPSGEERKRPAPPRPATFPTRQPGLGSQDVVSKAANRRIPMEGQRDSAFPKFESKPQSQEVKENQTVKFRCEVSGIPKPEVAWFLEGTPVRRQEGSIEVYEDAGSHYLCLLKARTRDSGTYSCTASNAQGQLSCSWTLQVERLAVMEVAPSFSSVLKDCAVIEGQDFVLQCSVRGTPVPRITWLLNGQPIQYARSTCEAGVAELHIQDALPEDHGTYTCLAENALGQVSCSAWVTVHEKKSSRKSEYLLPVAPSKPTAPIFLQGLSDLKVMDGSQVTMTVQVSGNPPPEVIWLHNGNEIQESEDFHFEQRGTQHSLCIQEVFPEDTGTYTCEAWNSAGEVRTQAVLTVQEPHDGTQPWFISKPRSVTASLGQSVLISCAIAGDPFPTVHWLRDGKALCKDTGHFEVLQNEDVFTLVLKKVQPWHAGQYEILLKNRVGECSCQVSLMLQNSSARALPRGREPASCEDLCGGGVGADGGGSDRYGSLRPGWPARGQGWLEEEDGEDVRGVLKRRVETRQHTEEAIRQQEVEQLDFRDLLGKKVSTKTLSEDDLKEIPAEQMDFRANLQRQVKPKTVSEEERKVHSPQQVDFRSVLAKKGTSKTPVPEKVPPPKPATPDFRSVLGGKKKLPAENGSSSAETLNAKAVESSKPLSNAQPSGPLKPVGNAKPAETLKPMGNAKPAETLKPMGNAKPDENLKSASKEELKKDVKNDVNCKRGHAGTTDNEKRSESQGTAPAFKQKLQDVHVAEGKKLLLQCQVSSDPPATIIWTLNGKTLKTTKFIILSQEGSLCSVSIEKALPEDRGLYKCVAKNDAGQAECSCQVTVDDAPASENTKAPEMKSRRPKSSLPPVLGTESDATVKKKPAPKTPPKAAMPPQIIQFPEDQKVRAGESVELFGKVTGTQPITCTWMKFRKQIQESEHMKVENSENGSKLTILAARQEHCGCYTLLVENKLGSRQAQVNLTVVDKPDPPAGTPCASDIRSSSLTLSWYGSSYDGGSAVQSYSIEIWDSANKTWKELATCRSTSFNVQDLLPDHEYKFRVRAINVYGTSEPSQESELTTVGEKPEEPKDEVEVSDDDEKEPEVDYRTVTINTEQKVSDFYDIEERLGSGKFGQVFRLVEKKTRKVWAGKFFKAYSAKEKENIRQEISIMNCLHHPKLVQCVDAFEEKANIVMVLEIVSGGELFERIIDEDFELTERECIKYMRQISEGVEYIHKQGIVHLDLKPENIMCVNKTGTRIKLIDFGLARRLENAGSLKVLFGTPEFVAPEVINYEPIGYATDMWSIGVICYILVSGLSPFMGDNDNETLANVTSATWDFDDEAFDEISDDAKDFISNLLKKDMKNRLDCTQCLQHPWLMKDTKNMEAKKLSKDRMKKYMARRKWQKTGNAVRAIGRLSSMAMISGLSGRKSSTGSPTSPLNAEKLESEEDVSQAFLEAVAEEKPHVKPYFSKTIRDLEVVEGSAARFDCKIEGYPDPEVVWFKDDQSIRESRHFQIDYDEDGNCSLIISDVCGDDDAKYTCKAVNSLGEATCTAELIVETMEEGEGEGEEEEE

Turning to `Oc1ccc(C2=Cc3ccc(O)cc3OC2)cc1` [compound 1, idronoxil], the remaining binding at 10 µM on STK39 was determined as 71%; on MKNK2 it was 54%; on PRKD3 it was 85%; on MARK2, 84%; on PIKFYVE it was 91%; at MAPK8, 68%. Also, the remaining binding at 10 µM is 96% at TEK; 91% at MAP2K4; 100% at MAPK13; 89% on EPHA8; 100% on CDK13; 78% on ZAP70. Besides, the remaining binding at 10 µM amounted to 99% on CDK19; 66% at PKN1; 69% at EPHA1; 80% on FLT3; 74% on PNCK; 82% at MAP3K9. For the same molecule, the remaining binding at 10 µM on RAF1 was 69%; at MYLK it was 52%.
